From patent US11179294B2, “Preservative removal from eye drops” (TearClear Corp., priority 2019, dated 2021)
Structures can show the parent of a compound that is named as a salt.

What was measured:
Assay type in all cases: physicochemical
[1] = Bimatoprost API/BAK uptake drop test through tip loaded with recrystallized stearic acid flakes (Table 8)
Protocol: Bimatoprost ophthalmic solution (20 mL) was formulated by combining 0.0027 g of Citric Acid Anhydrous (Alfa Aesar L #X16D073), 0.0536 g of Sodium phosphate dibasic, heptahydrate (Fisher chemical L #187384) and 0.1619 g of Sodium Chloride (Fisher chemical L #177082) to 20 g stock solution (2NB70.1) of 300 ppm Bimatoprost and 50 ppm BAK.
Bimatoprost formulation (3 mL), was placed into a 5 mL dropper bottle. Recrystallized Stearic acid flakes (0.116 g) was loaded into a proprietary testing tip. The tip was then placed on the dropper bottle containing the solution.
In a simulated usage, two drops are dispensed and diluted according to the proper method for HPLC analysis. Additional pairs of drops are dispensed at intervals no less than 1 hour apart. A standard consisting of the starting material is taken and diluted according to the specific HPLC method. Then each pair of drops was analyzed on the HPLC. The uptake is determined by comparing the area counts of the starting solution to the area counts of the drop. Bimatoprost has a similar linear signal range as BAK in this formulation so all data is collected from a single drop test. […] In successive drops, the BAK is not detected (e.g., is undetectable, is below a detectable threshold based on UV absorption, etc.).

[2] = Lifitegrast API uptake drop test through tip loaded with 50/50 polypropylene/stearic acid blend (Table 9); settings: 5.0% Lifitegrast formulation, 0.328 g 50/50 blend in tip
Protocol: (§1) A Lifitegrast ophthalmic solution (e.g., Xiidra mimic in the table) was prepared, consisting of 5.0% Lifitegrast (BOC Sciences Lot B19V08071), 2.0% Sodium Phosphate Dibasic Anhydrous (J. T. Baker Lot 0000236665), 0.5% Sodium thiosulfate pentahydrate (Fisher Chemical Lot 181801), and 0.005% BAK Aldrich 12063 (Lot #BCBW4741).
(§2) Three mL of the Lifitegrast formulation was placed into a 5 mL dropper bottle. 50/50 polypropylene/steric acid blend (0.328 g) was loaded into a proprietary testing tip. The tip was then placed on the dropper bottle containing the solution.
(§3) In a simulated usage, two drops are dispensed and diluted according to the proper method for HPLC analysis. Due to the relatively high concentration of Lifitegrast, 2 separate drops tests were done for the active pharmaceutical ingredient and BAK. A standard consisting of the starting material is taken and diluted according to the specific HPLC method. Then each pair of drops was analyzed on the HPLC. The uptake is determined by comparing the area counts of the HPLC peaks of the starting solution to the area counts of the drop.

[3] = Timolol Maleate/Brimonidine tartrate API uptake drop test through tip loaded with 20/80 polypropylene/stearic acid powder (Table 6); settings: solution 2NB62, 0.32 g stearic acid/polypropylene powder in tip, HPLC area counts of drops vs starting solution
Protocol: (§4) A Timolol Maleate/Brimonidine tartrate ophthalmic solution was prepared (e.g., 2NB62, a Combigan analogue, etc) according to Table 5. The following were added to a 500 mL bottle: 2.151 g of Sodium Phosphate dibasic heptahydrate (Fisher Chemical L #187384), 0.432 g of Sodium Phosphate monobasic monohydrate (Fisher Chemical L #188731), 0.505 g of 0.991% BAK solution (Lot 2NB61), 0.202 g of Brimonidine Tartrate (BOC Sciences L #BV19V06171), and 0.681 g of Timolol Maleate (BOC Sciences L #BS19V04062). Ultra-pure water (100.017 g) of was added and stirred on a rotary shaker overnight to dissolve. Three mL of the solution, 2NB62, was placed into a 5 mL dropper bottle. Stearic acid/polypropylene powder (0.32 g) was loaded into a proprietary testing tip. The tip was then placed on the dropper bottle containing the solution.
In a simulated usage, two drops are dispensed and diluted according to the proper method for HPLC analysis. Additional pairs of drops are dispensed at intervals no less than 1 hour (hr) apart. A standard consisting of the starting material is taken and diluted according to the specific HPLC method. Then each individual drop is analyzed on the HPLC. The uptake is determined by comparing the area counts from the HPLC peaks of the starting solution to the area counts of the drop.

[4] = Timolol Maleate/Brimonidine tartrate BAK uptake drop test through tip loaded with 20/80 polypropylene/stearic acid powder (Table 7); settings: solution 2NB62 through 20/80 blend tip
Protocol: as §4
In a simulated usage, two drops are dispensed and diluted according to the proper method for HPLC analysis. […] Then each individual drop is analyzed on the HPLC. The uptake is determined by comparing the area counts from the HPLC peaks of the starting solution to the area counts of the drop.
A separate, parallel drop test was performed using the same materials to test BAK uptake. […] In successive drops, the BAK is not detected (e.g., is undetectable, is below a detectable threshold based on UV absorption, etc.).

[5] = Lifitegrast BAK uptake drop test through tip loaded with 50/50 polypropylene/stearic acid blend (Table 10)
Protocol: as §1, §2, §3

[6] = 300 ppm Bimatoprost / 50 ppm BAK formulation, 0.116 g recrystallized stearic acid flakes in tip

In the case of CCNC(=O)CCC/C=C\C[C@@H]1[C@@H](/C=C/[C@@H](O)CCc2ccccc2)[C@H](O)C[C@@H]1O [Bimatoprost], the “Bimatoprost concentration after passing through the flakes” value [1, 6] is reported as “not significantly reduced”.
For CS(=O)(=O)c1cccc(C[C@H](NC(=O)c2c(Cl)cc3c(c2Cl)CCN(C(=O)c2ccc4ccoc4c2)C3)C(=O)O)c1 [Lifitegrast], the “Lifitegrast passage through the tip” value [2] was “not hindered”.
In the case of CC(C)(C)NC[C@H](O)COc1nsnc1N1CCOCC1 [Timolol, Timolol Maleate], the “API concentration after passing through the powder in the tip” value [3] is reported as “neither the concentration of Timolol nor Brimonidine are significantly affected”.
For Benzalkonium chloride [BAK], the “BAK in successive drops” value ([4]; drops after the first, UV detection) was “not detected”, the “BAK in first drop, share of starting BAK” value ([4]; first drop) was “about 5%” and the “BAK after passing through the flakes” value [1, 6] was “eliminated”. For the same compound, the “BAK in successive drops” value ([1]; successive drops, recrystallized stearic acid flakes tip) was “not detected”, the “BAK in later drops” value ([5]; drops after the first, Lifitegrast formulation through 50/50 blend tip) was “not detectable” and the “BAK in first drop” value ([5]; first drop, Lifitegrast formulation with 0.005% BAK through 50/50 blend tip) was “only a small amount”.
In the case of Brimonidine Tartrate, the “API concentration after passing through the powder in the tip” value [3] is reported as “neither the concentration of Timolol nor Brimonidine are significantly affected”.
